Assay [1] deals with P. falciparum 3D7 parasites. In words: P. falciparum growth inhibition assay, 1-cycle (72 h treatment), SYBR DNA staining (library screen at 2 μg/mL and dose-response). It counts as cell-based, Plasmodium falciparum. The settings on record: for activity at 2 µg/mL: Plasmodium falciparum.
The test system of assay [2] is P. falciparum 3D7 parasites. As to the kind of experiment: P. falciparum growth inhibition assay, 2-cycle (120 h treatment), delayed-death screen and dose-response. It is filed as cell-based, Plasmodium falciparum. The settings on record: for activity at 2 µg/mL: Plasmodium falciparum.
Assay [3] deals with T. gondii RH strain (RH-Tub-eYFP) tachyzoites. As to the kind of experiment: microbe, parasite or virus in culture. It counts as cell-based, Toxoplasma gondii. The following applies: for percent parasite growth at 2 µg/mL: Toxoplasma gondii.
[4] abbreviates: P. falciparum, 72 h, screen at 2 μg/mL, replicate 1.
Where [5] appears, read: P. falciparum, 72 h, screen at 2 μg/mL, replicate 2.
Setting [6] is: P. falciparum, 120 h, screen at 2 μg/mL, replicate 1.
[7] abbreviates: P. falciparum, 120 h, screen at 2 μg/mL, replicate 2.
The mark [8] stands for this setting: T. gondii, 72 h, screen at 2 μg/mL, replicate 1.
Setting [9] is: T. gondii, 72 h, screen at 2 μg/mL, replicate 2.
[10] abbreviates: 3D7, P. falciparum, 72 h, screen at 2 μg/mL, replicate 1, read-out: Pf_72h_%Growth_Rep1.
Setting [11] is: 3D7, P. falciparum, 72 h, screen at 2 μg/mL, replicate 2, read-out: Pf_72h_%Growth_Rep2.
The mark [12] stands for this setting: 3D7, P. falciparum, 120 h, screen at 2 μg/mL, replicate 1, read-out: Pf_120h_%Growth_Rep1.
Where [13] appears, read: 3D7, P. falciparum, 120 h, screen at 2 μg/mL, replicate 2, read-out: Pf_120h_%Growth_Rep2.
[14] abbreviates: 72 h, T. gondii, 72 h, screen at 2 μg/mL, replicate 1, read-out: Tg_72h_%Growth_Rep1.
The mark [15] stands for this setting: 72 h, T. gondii, 72 h, screen at 2 μg/mL, replicate 2, read-out: Tg_72h_%Growth_Rep2.

These results are taken from PMC12396409, “Screening and hit evaluation of a microbial metabolite library against the pathogenic Plasmodium falciparum and Toxoplasma gondii parasites” (International Journal for Parasitology: Drugs and Drug …, 2025).

Where two headings read alike, the source gives them in different places.

In assay [1] (setting [4]), `Cc1cc(=O)c2c(o1)-c1c(cc(O)c(O)c1C(=O)O)OC2` [Citromycetin] showed a Pf_72h_%Growth_Rep1 of 89.81%. In assay [1] (setting [5]), this compound returned a Pf_72h_%Growth_Rep2 of 87.50%. For the same compound, the Pf_120h_%Growth_Rep1 in assay [2] (setting [6]) came to 103.91%. In assay [2] (setting [7]), the Pf_120h_%Growth_Rep2 is 96.05%. For the same compound, the Tg_72h_%Growth_Rep1 in assay [3] (setting [8]) was 134.75%. Moreover, in assay [3] (setting [9]), the Tg_72h_%Growth_Rep2 is given as 97.97%.
Regarding `CC[C@H]1OC(=O)[C@H](C)[C@@H](O[C@H]2C[C@@](C)(OC)[C@@H](O)[C@H](C)O2)[C@H](C)[C@@H](O[C@@H]2O[C@H](C)C[C@H](N(C)C)[C@H]2O)[C@](C)(OC)C[C@@H](C)C(=O)[C@H](C)[C@@H](O)[C@]1(C)O` [Clarithromycin], the activity at 2 µg/mL was 74.8% in assay [1] (setting [10]), 62.6% in assay [1] (setting [11]), 31.2% in assay [2] (setting [12]) and 16.9% in assay [2] (setting [13]). The percent parasite growth at 2 µg/mL in assay [3] (setting [14]) was determined as 40.9%; in assay [3] (setting [15]) it was 40.8%.
As to `O=C(O)[C@H]1/C(=C/CO)O[C@@H]2CC(=O)N21` [Clavulanate potassium], the activity at 2 µg/mL in assay [1] (setting [10]) was 85.1%; in assay [1] (setting [11]), 88.1%; in assay [2] (setting [12]) it was 88.4%; in assay [2] (setting [13]) it was 86.6%. For the same compound, the percent parasite growth at 2 µg/mL in assay [3] (setting [14]) and in assay [3] (setting [15]) was 102% throughout.
For `CCC[C@@H]1C[C@@H](C(=O)N[C@@H]([C@H]2O[C@H](SC)[C@H](OP(=O)(O)O)[C@@H](O)[C@H]2O)[C@H](C)Cl)N(C)C1` [Clindamycin 2-phosphate, reference compound], in assay [1], the “1) Growth (%) at 72 h” value turned out to be 67.91%, the Pf_72h_%Growth_Rep1 is given as 73.78% and the Pf_72h_%Growth_Rep2 was found to be 62.04%. Besides, in assay [2], the “2) Growth (%) at 120 h” value is on record as 9.80%, the “3) Fold change (72 h/120 h)” value was 6.9, the Pf_120h_%Growth_Rep1 came to 15.54% and the Pf_120h_%Growth_Rep2 was found to be 4.05%. In addition, in assay [3], the Tg_72h_%Growth_Rep1 was 25.11% and the Tg_72h_%Growth_Rep2 is recorded as 20.67%.
`CC[C@H](C)[C@@H](OC(C)=O)[C@@H](C)C1=CC(=O)C2=C(O[C@]3(C)CC[C@H]4O[C@@H](C(C)(C)O)CC[C@]4(C)[C@H]3[C@@H]2O)C1=O` [Cochlioquinone A]: the activity at 2 µg/mL in assay [1] (setting [10]) worked out at 79.2%; in assay [1] (setting [11]), 80.1%; in assay [2] (setting [12]), 75.8%; in assay [2] (setting [13]) it was 74.1%. The percent parasite growth at 2 µg/mL in assay [3] (T. gondii, 72 h, screen at 2 μg/mL, replicate 1, read-out: Tg_72h_%Growth_Rep1) amounted to 161%; in assay [3] (T. gondii, 72 h, screen at 2 μg/mL, replicate 2, read-out: Tg_72h_%Growth_Rep2), 90.2%.
In the case of `CC[C@H](C)C(=O)[C@@H](C)C1=CC(=O)C2=C(O[C@]3(C)CC[C@H]4O[C@@H](C(C)(C)O)CC[C@]4(C)[C@H]3C2)C1=O` [Cochlioquinone B], the activity at 2 µg/mL in assay [1] (setting [10]) turned out to be 61.4%; in assay [1] (setting [11]) it was 52.9%; in assay [2] (setting [12]), 47%; in assay [2] (setting [13]), 44.2%. For the same compound, the percent parasite growth at 2 µg/mL was 110% in assay [3] (setting [14]) and 83.8% in assay [3] (setting [15]).
In the case of `COc1c(OC/C=C(\C)CCC=C(C)C)ccc2ccc(=O)oc12` [Collinin], the activity at 2 µg/mL in assay [1] (setting [10]) was 69.5%; in assay [1] (setting [11]) it was 86.1%; in assay [2] (setting [12]), 60.9%; in assay [2] (setting [13]) it was 78%. Besides, the percent parasite growth at 2 µg/mL came to 77.5% in assay [3] (setting [14]) and 110% in assay [3] (setting [15]).
Compound `COc1cc(-c2ccccn2)nc(/C=N/O)c1SC` [Collismycin] yielded a Pf_72h_%Growth_Rep1 in assay [1] (setting [4]) of 3.71%. In addition, the Pf_72h_%Growth_Rep2 in assay [1] (setting [5]) turned out to be 8.55%. The Pf_120h_%Growth_Rep1 in assay [2] (setting [6]) was -4.02%. The compound further registered a Pf_120h_%Growth_Rep2 in assay [2] (setting [7]) of 3.02%. For the same compound, the Tg_72h_%Growth_Rep1 in assay [3] (setting [8]) is given as -1.50%. The compound further came in with a Tg_72h_%Growth_Rep2 in assay [3] (setting [9]) of 0.69%.
With `C/C=C/[C@H]1O[C@@](O)([C@@H](C)[C@H](O)[C@H](C)[C@H]2OC(=O)/C(OC)=C/C(C)=C/[C@@H](C)[C@@H](O)[C@@H](CC)[C@@H](O)[C@H](C)C/C(C)=C/C=C/[C@@H]2OC)C[C@@H](O[C@H]2C[C@@H](O)[C@H](OC(N)=O)[C@@H](C)O2)[C@@H]1C` [Concanamycin A], the activity at 2 µg/mL in assay [1] (3D7, 72 h, P. falciparum, 72 h, screen at 2 μg/mL, replicate 1, read-out: Pf_72h_%Growth_Rep1) is 2.64%; in assay [1] (3D7, 72 h, P. falciparum, 72 h, screen at 2 μg/mL, replicate 2, read-out: Pf_72h_%Growth_Rep2) it was 2.16%; in assay [2] (3D7, 120 h, P. falciparum, 120 h, screen at 2 μg/mL, replicate 1, read-out: Pf_120h_%Growth_Rep1), 0.77%; in assay [2] (3D7, 120 h, P. falciparum, 120 h, screen at 2 μg/mL, replicate 2, read-out: Pf_120h_%Growth_Rep2), 5.18%. The percent parasite growth at 2 µg/mL in assay [3] (setting [14]) is -1.66%; in assay [3] (setting [15]), 0.56%.
Turning to `C/C=C/[C@H]1O[C@@](O)([C@@H](C)[C@H](O)[C@H](C)[C@H]2OC(=O)/C(OC)=C/C(C)=C/[C@@H](C)[C@@H](O)[C@@H](C)[C@@H](O)[C@H](C)C/C(C)=C/C=C/[C@@H]2OC)C[C@@H](O[C@H]2C[C@@H](O)[C@H](OC(N)=O)[C@@H](C)O2)[C@@H]1C` [Concanamycin B], the Pf_72h_%Growth_Rep1 in assay [1] (setting [4]) was 2.18%. Besides, the Pf_72h_%Growth_Rep2 in assay [1] (setting [5]) turned out to be 1.46%. The Pf_120h_%Growth_Rep1 in assay [2] (setting [6]) is on record as -3.38%. The Pf_120h_%Growth_Rep2 in assay [2] (setting [7]) is 8.50%. Moreover, the Tg_72h_%Growth_Rep1 in assay [3] (setting [8]) is -1.62%. For the same compound, the Tg_72h_%Growth_Rep2 in assay [3] (setting [9]) is on record as 0.33%.
Compound `C/C1=C\[C@H](C)C[C@H](C)[C@H](Cc2cnco2)OC(=O)/C(C)=C/CC[C@H](C)[C@H](Cc2cnco2)OC1=O` [Conglobatin B] came in with a Pf_72h_%Growth_Rep1 in assay [1] (setting [4]) of 81.21%. Moreover, in assay [1] (setting [5]), the Pf_72h_%Growth_Rep2 was 81.29%. Further, the Pf_120h_%Growth_Rep1 in assay [2] (setting [6]) is listed as 80.47%. Moreover, in assay [2] (setting [7]), the Pf_120h_%Growth_Rep2 turned out to be 86.62%. Moreover, the Tg_72h_%Growth_Rep1 in assay [3] (setting [8]) amounted to 184.82%. In assay [3] (setting [9]), this compound had a Tg_72h_%Growth_Rep2 of 99.16%.
In the case of `CC1=C[C@H](C)C[C@H](C)[C@H](Cc2cnco2)OC(=O)/C(C)=C\[C@H](C)C[C@H](C)[C@H](Cc2cnco2)OC1=O` [Conglobatin], the Mean in assay [1] (P. falciparum, 72 h, 2 μg/mL, mean of both replicates, growth (% of control)) was 52.30. In addition, the Pf_72h_%Growth_Rep1 in assay [1] (setting [4]) is listed as 86.29%. In assay [1] (setting [5]), this compound came in with a Pf_72h_%Growth_Rep2 of 18.30%. Further, the Pf_120h_%Growth_Rep1 in assay [2] (setting [6]) stood at 82.43%. In assay [2] (setting [7]), the Pf_120h_%Growth_Rep2 worked out at 72.72%. In assay [3] (setting [8]), the Tg_72h_%Growth_Rep1 was 127.73%. In assay [3] (setting [9]), this compound returned a Tg_72h_%Growth_Rep2 of 88.01%.
As for `Nc1ncnc2c1ncn2[C@@H]1O[C@H](CO)C[C@H]1O` [Cordycepin], the activity at 2 µg/mL in assay [1] (setting [10]) amounted to 22.1%; in assay [1] (setting [11]), 11.8%; in assay [2] (setting [12]) it was 24.5%; in assay [2] (setting [13]) it was 12.4%. The percent parasite growth at 2 µg/mL in assay [3] (setting [14]) was 80%; in assay [3] (setting [15]), 99.7%.
In turn, `CC(C)C(=O)N[C@H](CO)[C@H](O)c1ccc([N+](=O)[O-])cc1` [Corynecin III] returned a Pf_72h_%Growth_Rep1 in assay [1] (setting [4]) of 86.99%. Also, the Pf_72h_%Growth_Rep2 in assay [1] (setting [5]) stood at 97.15%. The Pf_120h_%Growth_Rep1 in assay [2] (setting [6]) worked out at 87.60%. In assay [2] (setting [7]), the Pf_120h_%Growth_Rep2 is given as 90.07%. Further, the Tg_72h_%Growth_Rep1 in assay [3] (setting [8]) is given as 93.46%. In assay [3] (setting [9]), this compound had a Tg_72h_%Growth_Rep2 of 102.63%.
Take `CCC(=O)N[C@H](CO)[C@H](O)c1ccc([N+](=O)[O-])cc1` [Corynecin II]: in assay [1] (setting [4]), the Pf_72h_%Growth_Rep1 turned out to be 84.27%. In addition, the Pf_72h_%Growth_Rep2 in assay [1] (setting [5]) is 79.27%. Besides, in assay [2] (setting [6]), the Pf_120h_%Growth_Rep1 was found to be 83.93%. Besides, the Pf_120h_%Growth_Rep2 in assay [2] (setting [7]) was 86.26%. Besides, the Tg_72h_%Growth_Rep1 in assay [3] (setting [8]) turned out to be 140.85%. Also, the Tg_72h_%Growth_Rep2 in assay [3] (setting [9]) was found to be 90.01%.
`CC(=O)N[C@H](COC(C)=O)[C@H](O)c1ccc([N+](=O)[O-])cc1` [Corynecin IV] had a Pf_72h_%Growth_Rep1 in assay [1] (setting [4]) of 87.87%. Besides, in assay [1] (setting [5]), the Pf_72h_%Growth_Rep2 was determined as 87.15%. Moreover, in assay [2] (setting [6]), the Pf_120h_%Growth_Rep1 was found to be 80.18%. In assay [2] (setting [7]), this compound registered a Pf_120h_%Growth_Rep2 of 96.02%. Moreover, the Tg_72h_%Growth_Rep1 in assay [3] (setting [8]) was determined as 146.78%. Also, the Tg_72h_%Growth_Rep2 in assay [3] (setting [9]) was 106.28%.
